According to paper PMC12326358, “Effect of Quantitative Structural Properties and Drug Formulation in Four Cannabinoids (Cannabidiol, Cannabigerol, Cannabichromene, and Cannabinol) on Their Lymphatic Transport after Enteral Administration in Rats” (Molecular Pharmaceutics, 2025):
Several values for one entry are separate records, joined by “and”; a condition that tells them apart may be missing. Equal values may be shown once. Entries after “also recorded” stand apart in the source; their conditions may differ. Read-outs that look alike come from different tables or passages of the source.

How the values were obtained:
[1] = Lymphatic transport studies in anesthetized mesenteric lymph duct cannulated rats; conditions: for FRL, relative bioavailability via lymph / bioavailability / Kp: intraduodenal, mean ± SD; for FRL, relative bioavailability via lymph: FRL=FAL/F; for bioavailability: F, total absolute bioavailability, sum of FAL and FAP; for Kp: Lymph/serum AUC ratio
Procedure: Anesthetized mesenteric lymph duct cannulated rat model was used for the lymphatic transport measurement as previously described with slight modifications. Briefly, rats were left on normal diet and given 1 mL of olive oil 1 h prior to the surgery to visualize the mesenteric lymph (milky white color). They were anesthetized with intramuscular xylazine 5 mg/kg and ketamine 100 mg/kg after a rapid isoflurane induction. A transverse laparotomy was performed. […] The catheter was fixed in place with two to three drops of tissue adhesive (Histoacryl, B. Braun Surgical, S.A., Spain). A duodenal catheter was also placed (polyethylene, 0.97 mm O.D., 0.58 mm I.D.) via a small duodenotomy and fixed with tissue adhesive. The abdominal wall was sutured in two layers, with both catheters leaving the abdominal cavity through the right flank. At the end of the procedure, the right jugular vein was cannulated for blood sampling.
The rats were then placed on heated pads and covered with blankets to prevent heat loss. Cannabinoids in oil solution or nanoemulsion were then dosed slowly via duodenal catheter over 30 min. The administered dose was 10 mg of CBD and 15 mg of CBG, CBC and CBN (volume 1 mL). Whole lymph was collected in regularly changed Eppendorf tubes from the time the dosing started. When the dosing was finished, continuous hydration with normal saline at a rate of 3 mL/h intraduodenally followed using an infusion pump (Perfusor compactplus, B. Braun Melsungen AG, Germany). Anesthesia was maintained throughout the rest of the experiment and additional ketamine intramuscular boluses were given whenever necessary. Eppendorf tubes were changed hourly and systemic blood was drawn at the same time points. Blood samples were centrifuged (4500 rpm for 10 min) and serum was extracted. Lymph volume was measured gravimetrically and the samples were further processed without additional adjustment. All samples were stored in −80 °C until analysis. Laboratory was unaware of animal assignment to the particular experimental groups (laboratory blinding).
Serum and lymph concentrations in all studies were dose-normalized to 1 mg/kg prior to further calculations. AUC values were determined using linear trapezoidal rule. Exact actual sampling times were used for this purpose. Scheduled sampling times were used for mean concentration plotting in the graphs. PK-solver add-on for MS Excel was used for all basic pharmacokinetic calculations. GraphPad Prism version 10.2.2 (GraphPad Software, San Diego, CA, USA) was used for all statistical analyses and graph plotting. Unpaired Student’s t test was used to compare pharmacokinetic and lymphatic transport parameters between the experimental groups. Level of significance was set to p < 0.05.
Lymphatic transport parameters were defined and calculated as previously described. , Briefly, absolute bioavailability via lymph (FAL) was defined as percentage of administered drug dose absorbed into the lymph. It was determined directly from lymph volume and drug concentration in lymph duct cannulated rats. Absolute bioavailability via portal vein (FAP) was analogically defined as percentage of administered drug dose reaching the systemic circulation after direct absorption into blood. It was calculated using equation 1 FAP=AUCent/AUCiv where AUCent is the area under the dose-normalized blood concentration–time curve after enteral dosing in lymph duct cannulated (i.e., lymph deprived) rats and AUCiv is the respective parameter in a separate intravenously dosed group. Total absolute bioavailability (F) in lymph duct cannulated rats was calculated as a sum of FAL and FAP. In normal animals with no lymph duct cannulation, F was calculated using standard formula for oral bioavailability: 2 F=AUCpo/AUCiv Relative bioavailability via lymph (FRL) was defined as the percentage of systemically available drug that was absorbed via lymph. It was calculated using the equation 3 FRL=FAL/F

[2] = type: physicochemical; conditions: final nanoemulsion
Procedure: To test pharmacokinetic parameters for various cannabinoids, the self-emulsifying drug delivery system (SEDDS) was selected due to its facile preparation and as it has shown an enhanced absorption profile for CBD.1 However, prior to administration the oil phase was mixed with water forming nanoemulsion to decrease viscosity and facilitate application to rats. […]
formulation is in the paper referred to as nanoemulsion.
In general, the nanoemulsion was prepared as follows. First, the oil phase containing Propylene glycol monocaprylate (PGMC), surfactant Kolliphor EL (CR-EL), co-surfactant and cannabinoid was prepared and thoroughly homogenized. As co-surfactants, we tested three compounds:
Diethylene glycol monoethyl ether (TRSC) or Ethyl alcohol (ETOH) or Propylene glycol (PRGL).
Next, four parts of water with respect to one part of oil (by weight) were added dropwise to the oil mixture at mild stirring. The stability of prepared nanoemulsions (initially without cannabinoids) was evaluated using dynamic light scattering (LS Instruments, Switzerland). […] and unstable samples, characterized by very high turbidity or phase separation, respectively, were not further analyzed. Optimization results are shown in the form of ternary diagrams for three tested co-surfactants (TRSC, ETOH, PRGL) in Fig. S1.
According to the manufacturer, CBD is most soluble in PGMC among other products.2 High solubility was also expected for other cannabinoids, thus PGMC was chosen as a suitable oil-phase base for nanoemulsion formulation in this study. Next, CR-EL was selected as a surfactant capable of forming nanoemulsions with PGMC in a wide range of concentrations (based on previous non-published experiments). To optimize the composition, stability and the size dependence of various emulsion mixtures were investigated for systems containing the aforementioned components and selected co-surfactants – TRSC, ETOH and PRGL (without cannabinoids). According to the […]
with desirable sizes (Fig. S1). Furthermore, TRSC is a proven skin permeation enhancer and solubilizer. Moreover, as shown by Franceschinis et al., TRSC acted as an excellent absorption […]
enhancer for 4,6,4′trimethylangelicin during oral administration. […]
co-surfactant and solubilizer for the final formulation tested in the pharmacokinetic study.
The final composition of nanoemulsion was chosen based on the compromise between the cannabinoids' loading capacity and the used surfactant amount. The final formulation contained 50wt.% of CR-EL, 30wt.% of TRSC and 20wt.% of PGMC. Long-term stability for the optimized formulation was tested for two cannabinoid concentrations – 15 mg/ml and 30 mg/ml. Results are shown in Tab. S1. The size was below 30 nm even after 30 days for all cannabinoids at 15mg/ml […]
Although all formulations were stable over time and to avoid any colloid instability and cannabinoid decomposition, the water phase was added to the oil phase directly before application in pharmacokinetic study.

[3] = nanoemulsion compared to oil solution, lymph duct-cannulated rats
[4] = nanoemulsion, lymph duct-cannulated rats
[5] = oil solution, lymph duct-cannulated rats
[6] = rat, in vivo, nanoemulsion, lymph duct-cannulated rats
[7] = rat, in vivo, oil solution, lymph duct-cannulated rats

Row | SMILES | drop of relative bioavailability via lymph (FRL) [1, 3] | increase in absolute bioavailability via lymph (FAL) [1, 3] | increase in absolute bioavailability via portal vein (FAP) [1, 3] [fold] | FRL, relative bioavailability via lymph [1, 4] | FRL, relative bioavailability via lymph [1, 5] [%] | bioavailability [1, 6] [%] | bioavailability [1, 7] [%] | Kp [1, 6] | Kp [1, 7] | DLS, 90° size ([2]; cannabinoid 15 mg/ml, 1 day) [nm] | DLS, 90° size ([2]; cannabinoid 15 mg/ml, 30 days) [nm] | DLS, 90° size ([2]; cannabinoid 30 mg/ml, 1 day) [nm] | DLS, 90° size ([2]; cannabinoid 30 mg/ml, 30 days) [nm] | drop of relative bioavailability via lymph (FRL) ([1]; rat, in vivo) [%] | increase in absolute bioavailability via lymph (FAL) ([1]; rat, in vivo) [fold] | increase in absolute bioavailability via portal vein (FAP) ([1]; rat, in vivo) [fold]
1 | CCCCCc1cc(O)c2c(c1)OC(C)(CCC=C(C)C)C=C2 (centres unmarked) [CBC, cannabichromene] | did not reach statistical significance | 3 fold | 8 | 47% and 47 ± 14% | 63 ± 17 | 29 ± 7 | 6.6 ± 3.9 | 530 ± 239 | 1260 ± 676 | 25 | 25 | 40 | 34 | – | – | –
2 | C=C(C)[C@@H]1CCC(C)=C[C@H]1c1c(O)cc(CCCCC)cc1O [CBD, cannabidiol] | 74% | did not increase; also recorded: no increase | 11 | 13% and 13 ± 8 % | 50 ± 12 | 24 ± 9 | 4 ± 1.5 | 100 ± 60 | 699 ± 333 | 26 | 26 | 200 | 222 | – | – | –
3 | CCCCCc1cc(O)c(C/C=C(\C)CCC=C(C)C)c(O)c1 [CBG, cannabigerol] | – | – | – | – | – | – | – | – | – | 31 | 32 | – | – | 75 | 8 | 71
4 | CCCCCc1cc(O)c2c(c1)OC(C)(C)c1ccc(C)cc1-2 [CBN, cannabinol] | 48% | 3 fold | 13 | 36% and 36 ± 20 % | 69 ± 13 | 29 ± 10 | 5.3 ± 2 | 274 ± 231 | 976 ± 519 | 27 | 27 | 67 | 68 | – | – | –
